The text below walks through data of US12558428B2, “Heterobifunctional compounds and their use in treating disease” (Halda Therapeutics OpCo, Inc., priority 2024, dated 2026).

The GI50 is the concentration at which growth is held to half of that of the control.

Holding throughout (assay type): cell-based
The test system of assay [1] is T-Rex 293 cells having increased expression of estrogen receptor alpha protein. Put plainly: Cellular growth inhibition assay, T-Rex 293 cells, (+) doxycycline. Particulars: T-REx-293, 72 h, T-Rex 293 cells with doxycycline-induced ERα expression, 72 hours, CellTiter-Glo 2.0; read-out: (+) Dox TRex ERa (GI50). The method, boiled down:
(§1)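 ERα overexpression was switched on by 3 ng/mL doxycycline in a stably transfected T-Rex 293 clone, while uninduced cells served as the comparison line. Proliferation over 72 h of compound treatment was assessed by ATP luminescence, and GI50 values came from four-parameter curves.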
In general terms: ATP-based viability assays read luminescence as a measure of living cells.

For assay [2], the system named is T-Rex 293 cells lacking increased expression of estrogen receptor alpha protein. Put plainly: Cellular growth inhibition assay, T-Rex 293 cells, (−) doxycycline. As to conditions: T-REx-293, 72 h, T-Rex 293 cells without doxycycline, 72 hours, CellTiter-Glo 2.0; read-out: (−) Dox TRex ERa (GI50). The method, boiled down: as §1
Assay [3] concerns MCF7 cells (ATCC #HTB-22). Nature of the assay: Cellular growth inhibition assay, MCF7 cells purchased from ATCC. Particulars: Homo sapiens, MCF7, 144 h, Table 8-A; MCF7 cells purchased from ATCC; six days; CellTiter-Glo; read-out: GI50. The method, boiled down:
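MCF7 cells in RPMI 1640 with 10% FBS and 0.2 U/ml insulin, seeded at 1,500 cells/well (ATCC) or 225 cells/well (ECACC). Compounds added 24 h later, then 6 days at 37° C. Viability by CellTiter-Glo 2.0 luminescence. GI50 from four-parameter fit.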

As for `CCN(CCCCCCCCNC(=O)C[C@@H]1N=C(c2ccc(Cl)cc2)c2c(sc(C)c2C)-n2c(C)nnc21)CCOc1ccc(C(=O)c2c(-c3ccc(O)cc3)sc3cc(O)ccc23)cc1` [I-2, (S)-2-(4-(4-chlorophenyl)-2,3,9-trimethyl-6H-thieno[3,2-f][1,2,4]triazolo[4,3-a][1,4]diazepin-6-yl)-N-(8-(ethyl(2-(4-(6-hydroxy-2-(4-hydroxyphenyl)benzo[b]thiophene-3-carbonyl)phenoxy)ethyl)amino)octyl)acetamide], the GI50 in assay [1], in assay [2] and in assay [3] was 50 to 500 nM in each case.

Take `CCN(CCOCCOCCNC(=O)C[C@@H]1N=C(c2ccc(Cl)cc2)c2c(sc(C)c2C)-n2c(C)nnc21)CCOc1ccc(C(=O)c2c(-c3ccc(O)cc3)sc3cc(O)ccc23)cc1` [I-3, (S)-2-(4-(4-chlorophenyl)-2,3,9-trimethyl-6H-thieno[3,2-f][1,2,4]triazolo[4,3-a][1,4]diazepin-6-yl)-N-(2-(2-(2-(ethyl(2-(4-(6-hydroxy-2-(4-hydroxyphenyl)benzo[b]thiophene-3-carbonyl)phenoxy)ethyl)amino)ethoxy)ethoxy)ethyl) acetamide]: the GI50 in assay [1] was in the range of 50 to 500 nM; in assay [2] it was 500 to 2500 nM; in assay [3], 50 to 500 nM.
